Results reported in patent publication US20220252611A1 (priority 2019, published 2022).

Columns and labels:
[1] = test system: alpha 2 adrenergic receptor; test: Simultaneous MS binding assay, alpha 2 adrenergic receptor in rat cortex; conditions: multiplexed with prazosine, FIG. 3A
Procedure: (§1) FIG. 3A is a graph showing a simultaneous binding experiment with alpha1 and alpha 2 beta-adrenoceptors. The target molecules are comprised in rat cortex, which contains both alpha 1 and alpha 2 beta adrenoceptors. The test compound is WB4101 and the ligands are prazosine and RX821002.
(§2) This example used target molecule comprising both alpha 1 and alpha 2 beta adeno receptors incubated with WB4101 (test compound) in the presence prazosine (ligand, or “marker” for alpha 1) and RX821002 (ligand, or “marker” for alpha 2) as shown in FIG. 3A. In FIG. 3B, yohimbine (test compound) was tested in the presence of in the presence prazosine (marker for alpha 1) and RX821002 (marker for alpha 2). The signals are indicated ns for non-specific.
(§3) Rat cortexes from Wistar male rats were harvested and transferred to 50 mM Tris-HCl (pH, 7.4) and homogenized by a polyton. […] The pellet was finally resuspended in a smaller volume of lyses buffer and the final protein concentration was determined according to the Bradford method using bovine serum albumin as a standard. […]
(§4) The filters were dried for one hour at 50° C. and cooled to room temperature before elution of ligands using a acetonitrile (contained 100 μM of antipyrine as an internal standard) via a vacuum manifold. Relative quantification of ligand in each sample was performed by UHPLC-MS-MS, the ratio area of ligand and internal standard was used. […]

[2] = test system: alpha 1 adrenergic receptor; test: Simultaneous MS binding assay, alpha 1 adrenergic receptor in rat cortex; conditions: multiplexed with RX821002, FIG. 3A
Procedure: as §1, §2, §3, §4

sodium channels = test: Radioligand binding assay of sodium (Na) channel; conditions: rat cortex sodium channels; first value column of Table 4 (SNR 6), taken as radioligand binding
[3] = biological target: sodium channel (Na+) site 2 receptor; test: MS binding assay of sodium channel, batrachotoxin as ligand, UHPLC-MS/MS; conditions: rat cortex membrane 200 μg/well, 60 minutes at 37° C.; second value column of Table 4 (SNR 8), taken as MS binding

Compound: COC1(C2=NCCN2)COc2ccccc2O1 (stereo not shown) [RX821002]
- specific binding to alpha 2 adrenergic receptor [1]: shown specifically to bind

Compound: COc1cc2nc(N3CCN(C(=O)c4ccco4)CC3)nc(N)c2cc1OC [prazosine]
- specific binding to alpha 1 adrenergic receptor [2]: shown specifically to bind

Compound: Batrachotoxin
- Kd (sodium channels): 91 nM
- EC50 [3]: 143 nM
